Experiment [1] concerns the target T1, integrin α4β7 (RPMI8866 human cells adhering to MAdCAM-1) (Homo sapiens, UniProt P13612+P26010).
T1 construct: RMP18866 cells, which express integrin α4β7; host or cells: RPMI8866
T1 sequence (P13612 34-1032): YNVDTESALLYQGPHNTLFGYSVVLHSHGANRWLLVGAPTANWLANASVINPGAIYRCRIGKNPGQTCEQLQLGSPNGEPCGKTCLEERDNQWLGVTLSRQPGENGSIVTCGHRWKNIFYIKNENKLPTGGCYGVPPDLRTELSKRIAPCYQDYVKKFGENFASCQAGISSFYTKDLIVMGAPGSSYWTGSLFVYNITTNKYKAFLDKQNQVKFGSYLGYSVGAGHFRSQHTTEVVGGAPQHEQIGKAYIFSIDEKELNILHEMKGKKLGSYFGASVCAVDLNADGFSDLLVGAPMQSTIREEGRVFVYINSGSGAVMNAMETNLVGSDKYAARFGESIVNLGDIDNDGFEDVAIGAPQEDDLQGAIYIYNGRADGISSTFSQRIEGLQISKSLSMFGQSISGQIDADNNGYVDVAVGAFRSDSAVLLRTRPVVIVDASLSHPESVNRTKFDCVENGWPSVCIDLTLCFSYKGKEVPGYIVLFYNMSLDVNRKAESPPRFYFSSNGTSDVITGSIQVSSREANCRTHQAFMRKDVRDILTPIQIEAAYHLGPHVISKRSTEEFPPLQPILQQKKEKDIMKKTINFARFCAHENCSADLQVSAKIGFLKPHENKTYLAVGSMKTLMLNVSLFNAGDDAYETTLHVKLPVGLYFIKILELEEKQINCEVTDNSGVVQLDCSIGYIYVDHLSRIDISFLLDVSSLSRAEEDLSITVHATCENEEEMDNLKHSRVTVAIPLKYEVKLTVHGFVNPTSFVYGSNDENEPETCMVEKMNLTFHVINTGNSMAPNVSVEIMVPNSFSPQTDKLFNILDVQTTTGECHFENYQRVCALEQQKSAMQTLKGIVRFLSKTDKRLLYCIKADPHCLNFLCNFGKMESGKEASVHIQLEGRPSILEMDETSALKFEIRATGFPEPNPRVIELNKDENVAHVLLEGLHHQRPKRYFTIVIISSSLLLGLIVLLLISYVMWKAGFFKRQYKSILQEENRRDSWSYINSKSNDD
T1 sequence (P26010 20-798): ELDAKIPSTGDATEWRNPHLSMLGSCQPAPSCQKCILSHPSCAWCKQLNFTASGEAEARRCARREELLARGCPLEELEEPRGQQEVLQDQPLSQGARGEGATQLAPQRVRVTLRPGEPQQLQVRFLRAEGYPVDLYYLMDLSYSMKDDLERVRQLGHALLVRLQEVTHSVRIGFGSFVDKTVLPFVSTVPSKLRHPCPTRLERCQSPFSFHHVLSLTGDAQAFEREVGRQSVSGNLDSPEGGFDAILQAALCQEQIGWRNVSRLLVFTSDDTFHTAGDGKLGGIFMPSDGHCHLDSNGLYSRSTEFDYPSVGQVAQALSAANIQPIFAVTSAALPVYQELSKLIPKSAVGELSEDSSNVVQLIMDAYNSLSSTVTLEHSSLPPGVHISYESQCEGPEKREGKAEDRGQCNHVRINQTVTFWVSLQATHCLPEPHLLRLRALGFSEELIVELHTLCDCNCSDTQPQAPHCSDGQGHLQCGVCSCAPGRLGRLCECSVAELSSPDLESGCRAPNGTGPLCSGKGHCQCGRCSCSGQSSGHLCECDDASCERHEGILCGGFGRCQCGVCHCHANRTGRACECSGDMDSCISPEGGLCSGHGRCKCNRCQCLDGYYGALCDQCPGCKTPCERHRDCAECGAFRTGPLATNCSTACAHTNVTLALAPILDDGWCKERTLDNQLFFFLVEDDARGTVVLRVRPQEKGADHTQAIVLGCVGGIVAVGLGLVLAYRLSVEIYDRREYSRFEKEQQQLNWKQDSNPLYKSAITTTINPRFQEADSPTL
Nature of the experiment: Integrin α4β7-MAdCAM cell adhesion assay (RPMI8866 cells). The class given is cell-based. As to conditions: RPMI8866 cells adhering to MAdCAM; read-out: RPMI8866 Adhesion α4β7/MAdCAM IC50. An outline of the steps:
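Adhesion was read by calcein fluorescence. RPMI8866 cells were labelled at 10 million cells/ml with […] calcein (37° C., 30 min) and washed twice in PBS before reading. Dose-response values were corrected by subtracting cell-free control well fluorescence.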

The target of experiment [2] is T2, integrin α4β7 on α4β7+ memory T helper cells (Homo sapiens, UniProt P13612+P26010).
T2 construct: endogenous in cells
T2 sequence (P13612 34-1032): T1 sequence (P13612 34-1032)
T2 sequence (P26010 20-798): T1 sequence (P26010 20-798)
Put plainly: MAdCAM-1 competition / receptor occupancy assay in human whole blood, α4β7-positive Th memory cells. The class given is cell-based. Conditions: human whole blood, inhibition of MAdCAM-1 binding to α4β7-positive Th memory cells, FACS; read-out: MADCAM FACS α4β7 Th mem. On the procedure: Analyte Competition Assay in CD4+ Integrin α4+β7-Lo Memory T Cells
Receptor occupancy in primary cells was determined by measuring the amount of biotinylated human recombinant MAdCAM-1-FC or human recombinant VCAM-1-Fc bound to selected cell populations using flow cytometry. Human recombinant MAdCAM-1-FC or human recombinant VCAM-1-FC (R&D systems) were biotinylated using commercially available reagents and protocol (Pierce).
Whole blood was collected from human donors in sodium heparin tubes. […] Cells were washed twice with 1 mL of 1X DPBS calcium magnesium free (CMF) (ThermoFisher Scientific) and resuspended in 100 microL of DPBS CMF.
Biotinylated human recombinant MAdCAM-1-Fc or VCAM-1-Fc were added at saturating concentration and incubated at room temperature for 1 hour. […] Cells were washed with 1 mL stain buffer-FBS (BD Biosciences) and resuspended in 100 μl stain Buffer-FBS (BD Biosciences) containing 4 mM MnCl2. […] Cells were then washed with 1 mL stain buffer-FBS and resuspended in […] stain buffer-FBS. The cells were incubated in the dark for 30 minutes at room temperature with 1 ul Streptavidin APC (Biolegend 0.2 mg/ml) and a panel of antibodies for the detection of memory T helper a4b7-positive cells subset. And amount of 5.0 ul each of the following antibodies were used; CD45 FITC (BioLegend 200 ug/ml), CD29 APC Cy7 (BioLegend 100 ug/ml), Integrin beta7 PE, (BioLegend concentration 50 μg/mL), CD49d V421 (BioLegend 50 μg/mL), CD3 V510 (BioLegend 30 μg/mL), CD4 PECy7 (BioLegend 100 μg/mL), CD45RO PerCP, BioLegend 200 μg/mL). The cells were then washed with stain-buffer-FBS and resuspended in 150 microL stain buffer-FBS for acquisition on the flow cytometer (BD FACSCanto™ flow cytometer and BDFACSDiva™ software). FACS data was acquire by electronic gating on the basis of forward versus side scatter, The cytometer was set to collect 20,000 events in each tube. Cell population were determined using the following markers, CD45+, CD3+, CD4+, CD45RO+, CD49d+, integrin b7, biotinylated ligands.
Compound receptor occupancy was defined as the decrease in the number of integrin β7+ or integrin β7-lo cells binding biotinylated rhMAdCAM-1 or rhVCAM-1, respectively.
Receptor occupancy was calculated with the following equation: 100−((% ligand-positive cells with compound/% ligand-positive cells DMSO)*100) In Vivo T Lymphocyte Trafficking Analysis in Mouse Model of Colitis

Experiment [3] deals with T3, recombinant integrin α4β1 (Homo sapiens, UniProt P05556+P13612).
T3 construct: purchased R&D Systems 5397-A3-050
Nature of the experiment: Integrin α4β1—VCAM-1 competition ELISA. The class given is binding. Conditions: read-out: ELISA α4β1 Assay IC50. The procedure, abridged:
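Detection of bound ligand used HRP-conjugated anti-human IgG Fc, 1 h with agitation at room temperature. This followed a 2 h room-temperature, 300 rpm equilibration of compound in the coated wells. Washes were done in 50 mM Tris, 100 mM NaCl, 1 mM MnCl2, 0.05% Tween.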
For orientation: ELISA stands for enzyme-linked immunosorbent assay.

T3 sequence (P05556 21-728 limits assumed, one chain of several): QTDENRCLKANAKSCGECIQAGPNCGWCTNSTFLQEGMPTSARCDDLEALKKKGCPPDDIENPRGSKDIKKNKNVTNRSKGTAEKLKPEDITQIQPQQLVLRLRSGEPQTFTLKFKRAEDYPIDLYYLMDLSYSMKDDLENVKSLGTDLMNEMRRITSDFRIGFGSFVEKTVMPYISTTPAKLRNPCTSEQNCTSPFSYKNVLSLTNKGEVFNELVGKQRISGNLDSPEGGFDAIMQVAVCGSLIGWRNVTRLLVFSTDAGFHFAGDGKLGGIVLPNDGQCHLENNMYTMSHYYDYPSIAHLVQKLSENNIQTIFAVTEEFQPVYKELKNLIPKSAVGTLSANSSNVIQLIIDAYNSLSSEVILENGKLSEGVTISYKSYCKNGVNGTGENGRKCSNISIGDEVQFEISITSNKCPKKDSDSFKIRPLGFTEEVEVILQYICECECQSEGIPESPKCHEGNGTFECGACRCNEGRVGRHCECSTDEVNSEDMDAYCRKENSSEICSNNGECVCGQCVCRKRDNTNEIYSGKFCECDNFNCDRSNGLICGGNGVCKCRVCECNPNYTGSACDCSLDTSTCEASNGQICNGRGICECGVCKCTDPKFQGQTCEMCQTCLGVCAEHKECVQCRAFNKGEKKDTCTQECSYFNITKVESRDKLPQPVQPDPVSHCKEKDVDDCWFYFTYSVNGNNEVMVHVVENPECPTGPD

As to `CC(C)C[C@@H]1NC(=O)c2ccc(-c3ccc(N4CCN(C(=O)CCOCCOCCOCCOCCOCCOCCOCCOCCOCCOCCOCCC(=O)N5CCN(c6ccc(-c7ccc8cc7CNC(=O)[C@@H]7CCCN7[C@H](C(=O)NC(C)(C)C)[C@H](C)NC(=O)[C@H]([C@@H](C)O)NC(=O)[C@H](CC(=O)O)NC(=O)[C@H](CC(C)C)NC8=O)cc6)CC5)CC4)cc3)c(c2)CNC(=O)[C@@H]2CCCN2[C@H](C(=O)NC(C)(C)C)[C@H](C)NC(=O)[C@H]([C@@H](C)O)NC(=O)[C@H](CC(=O)O)NC1=O` [Compound 503], the IC50 in experiment [1] came out at 45 nM; in experiment [2], 250 nM.

Take `CC(C)C[C@@H]1NC(=O)c2ccc(-c3ccc(N4CCN(C(=O)c5ccccc5C(=O)N5CCN(c6ccc(-c7ccc8cc7CNC(=O)[C@@H]7CCCN7[C@H](C(=O)NC(C)(C)C)[C@H](C)NC(=O)[C@H]([C@@H](C)O)NC(=O)[C@H](CC(=O)O)NC(=O)[C@H](CC(C)C)NC8=O)cc6)CC5)CC4)cc3)c(c2)CNC(=O)[C@@H]2CCCN2[C@H](C(=O)NC(C)(C)C)[C@H](C)NC(=O)[C@H]([C@@H](C)O)NC(=O)[C@H](CC(=O)O)NC1=O` [Compound 512]: the results for the IC50 in experiment [1] and in experiment [2] were 25 nM and 64 nM, respectively.

As for `CC(C)C[C@@H]1NC(=O)[C@H]2Cc3ccccc3CN2C(=O)[C@H](Cc2cccc(CNC(=O)CCCCCC(=O)NCc3cccc(C[C@@H]4NC(=O)[C@@H]5CCCN5[C@H](C(=O)NC(C)(C)C)[C@H](C)NC(=O)[C@H]([C@@H](C)O)NC(=O)[C@H](CC(=O)O)NC(=O)[C@H](CC(C)C)NC(=O)[C@H]5Cc6ccccc6CN5C4=O)c3)c2)NC(=O)[C@@H]2CCCN2[C@H](C(=O)NC(C)(C)C)[C@H](C)NC(=O)[C@H]([C@@H](C)O)NC(=O)[C@H](CC(=O)O)NC1=O` [Compound 527], the figures for the IC50 in experiment [3], in experiment [1] and in experiment [2] were 1.1 nM, 43 nM and 126 nM, respectively.

(Values after patent US11713338B2, “Cyclic peptides multimers targeting α-4-β-7 integrin” (priority 2016, dated 2023).)
